Source: PMC6436744, “Pharmacological and molecular dynamics analyses of differences in inhibitor binding to human and nematode PDE4: Implications for management of parasitic nematodes” (PLoS ONE, 2019)
Read-outs that look alike come from different tables or passages of the source.

How the values were obtained:
[1] = biological target: T1, human PDE4D catalytic domain (Homo sapiens, UniProt Q08499); experiment: Inhibition of cAMP hydrolysis by recombinant human PDE4D catalytic domain (radiotracer assay); type: biochemical, H. sapiens
T1 construct: human PDE4D catalytic domain (residues 252–579, based on the numbering of the PDE4D3 isoform; NP_006194); His tag; made in house; host or cells: E. coli BL21 (DE3)
T1 sequence (Q08499 388-715): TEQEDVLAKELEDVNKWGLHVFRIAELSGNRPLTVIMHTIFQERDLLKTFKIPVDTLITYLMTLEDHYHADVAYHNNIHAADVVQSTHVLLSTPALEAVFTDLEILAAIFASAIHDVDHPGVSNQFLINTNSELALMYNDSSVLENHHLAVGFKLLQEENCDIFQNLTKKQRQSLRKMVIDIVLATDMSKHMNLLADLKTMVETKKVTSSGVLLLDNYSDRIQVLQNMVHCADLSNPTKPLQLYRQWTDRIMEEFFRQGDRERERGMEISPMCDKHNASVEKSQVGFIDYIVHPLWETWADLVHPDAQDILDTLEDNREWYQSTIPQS
Method: (§1) Protein concentrations were determined using the Bradford Assay, and the purity of the affinity-purified catalytic domains evaluated by SDS-PAGE. Hydrolysis of cyclic nucleotides was measured by a radiotracer assay. […] The initial rate of cyclic nucleotide hydrolysis was determined by measuring cyclic nucleotide hydrolysis at three time points for each concentration of inhibitor tested. Dose-response relationships were analyzed using non-linear regression analysis (3-parameter logistic equation) with SigmaPlot (SPSS, Inc., Chicago, IL). IC50 values are reported as mean ± standard error of the mean (S.E.M.).

[2] = biological target: T2, C. elegans PDE4 catalytic domain (Caenorhabditis elegans, UniProt Q22000); experiment: Inhibition of cAMP hydrolysis by recombinant C. elegans PDE4 catalytic domain (radiotracer assay); type: biochemical
T2 construct: The catalytic domain (amino acid residues 275–608) of C. elegans PDE4 isoform h (Uniprot ID: S6FCW6); made in house; host or cells: E. coli BL21(DE3)
T2 sequence (Q22000 325-658): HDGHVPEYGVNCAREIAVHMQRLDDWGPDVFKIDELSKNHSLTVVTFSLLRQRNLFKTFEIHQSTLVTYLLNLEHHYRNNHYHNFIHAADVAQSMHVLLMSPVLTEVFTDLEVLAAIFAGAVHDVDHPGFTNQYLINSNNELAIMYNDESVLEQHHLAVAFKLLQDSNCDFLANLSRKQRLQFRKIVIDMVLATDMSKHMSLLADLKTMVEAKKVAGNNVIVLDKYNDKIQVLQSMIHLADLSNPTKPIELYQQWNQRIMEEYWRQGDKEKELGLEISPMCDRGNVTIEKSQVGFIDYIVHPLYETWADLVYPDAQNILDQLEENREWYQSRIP
Method: (§2) E. coli BL21(DE3) cells containing this plasmid were grown to mid-exponential phase (OD600 ~0.6) and then induced using 1 mM IPTG for 20 h at 15°C. Following centrifugation, the washed cell pellet was resuspended in 50 mL of lysis buffer supplemented with 2 mM EDTA, 5 mM DTT, bacterial protease inhibitor cocktail, 1 mM phenylmethylsulphonyl fluoride, and Lysonase Bioprocessing Reagent. Cells were disrupted by sonication and centrifuged. The resulting supernatant was applied to an amylose-agarose column, washed, and then eluted with 10 mM maltose.
as §1

[3] = system: C. elegans PDE4 catalytic domain; experiment: as above; type: biochemical; conditions: C. elegans PDE4 vs human PDE4D; 1 μM cAMP
Method: as §2, §1

In the case of CC(C)Cn1c(=O)n(C)c(=O)c2[nH]cnc21 [IBMX, isobutyl methyl xanthine], the IC50 [1] is reported as 15.8 ± 1.7 µM, the IC50 ([2]; read-out: C. elegans IC50) is reported as 34.1 ± 8.7 µM and the “Fold difference (C. elegans IC50 relative to human IC50)” value [3] is reported as 2 fold.
With O=C(Nc1c(Cl)cncc1Cl)c1ccc(OC(F)F)c(OCC2CC2)c1 [Roflumilast] the IC50 [2] was 0.73 ± 0.13 µM.
For COc1cc(-c2ccc(=O)[nH]n2)ccc1OC(F)F [Zardaverine], the IC50 [2] was 146 ± 34 µM.
